The structures appear in SMILES notation.

The text below walks through data of patent publication US20050032646A1, “Agents for the regulation of gametophytic self-incompatibility and a control method for the breakdown of gametophytic self-incompatibility using the agents” (priority 2002, published 2005).

Data set [1] concerns Hongro apple flowers. Put plainly: Side-effect of the agents toward Hongro apple flowers. In kind it is in vivo. The arrangement: key: 0: no side-effect is observed, and it is same as no treatment of the agents; 1: the side-effect are observed in flowers, but they recover to normal fruition in a week; 2: a fall-out of flowers and 10% decrease in fruition rate; 3: about 40% loss; 4: 60% loss; 5: a severe loss in fruition. Here is the method: To investigate the side-effect of the agent, various concentrations of the agents were treated to the flowers of Hongro apple.

In data set [2] the test system is Lycopersicon peruvianum. Nature of the data set: Breakdown of the self-incompatibility in Lycopersicon peruvianum (fruition rate, greenhouse). In kind it is in vivo. The procedure:
To verify the inhibition of a style-specific S RNase and the suppression of SI system with an agent of the present invention in a practical cultivating Environment, a wild-type tomato (Lycopersicon peruvianum) which has a gametophytic SI system was cultivated in a greenhouse at genetically insulated environment and was treated with an S RNase inhibitor of the present invention.
To determine the treatment period of an S RNase inhibitor, the inhibitor was applied to flowers either at the early blooming period (budding formation period to full blooming), or the middle blooming period (full blooming), or the late blooming period (1 day after full blooming period of petal), respectively. Each inhibitors in 0.1 mM aqueous solution (except the ZnSO4 (1 mM) and CuSO4 (1.0 mM) solution) was treated enough to get-wet flowers ith a micro-spray at 9:00-11:00 AM when the pollination of plant occurs most actively. The experiment with 25 blooming flowers (organ containing a stamen, a stigma, a petal, etc.) was repeated 4 times and the fruition rate ws investigated and the results are shown in Table 2.

The test system of data set [3] is 20-Century pear. Nature of the data set: Breakdown of the self-incompatibility in 20-century pear (fertilization rate, field). In kind it is in vivo. Conditions: 600 μM, sprayed 5 and 2 days before full bloom, 14 days after the treatment. The procedure: In a field test, 20-Century pear (the Rosaceae) which has self-incompatibility system was isolated single-genetically by covering up selected branches or whole plants with a fine-meshed net to exclude any pollinating insects. The aqueous of 600 μM solution of an agent of the present invention was treated enough to get-wet flowers with a micro-spray at 9:00-11:00 AM. The agent solution was micro-sprayed 2 times; first at 5 days before full bloom and second at 2 days before full bloom. The reference was artificial cross-pollination at full bloom. The fertilization rate was investigated 14 days after the treatment and compared with no treatment and artificial cross-pollination.

Data set [4] relates to style-specific S RNase of Fuji apple. Put plainly: Inhibition of the activity of a style-specific S RNase by the agents. The settings on record: optical density at 260 nm (A260), agent 2.0 mM, no treatment 1.10. In kind it is biochemical. The procedure: Inhibition of S RNase activity by an agent of the present invention was measured as follows: The standard solution of 500 μL of 10 mM sodium phosphate (pH 7.0) with an agent (2.0 mM), and 500 μL of torula yeast rRNA (5 mg/mL) was pre-incubated for 10 min at 37° C. To the substrate solution, the 20 μL of the style-specific S RNase (200 ng) of Fuji apple was added, then the solution was incubated for 30 min at 37° C. A fraction of 200 μL was collected and 40 μL of stop buffer (ice-cold 25% HCIO4, 0.75% uranyl acetate) was added, then mixed and centrifuged at 12,000 rpm for 5 min. And 50 μL of the supernatant was diluted with 950 μL of dd H2O, then the solution was centrifuged and measured the optical density at 260 nm (A260) (Singh A. et al., Plant Physilolgy, 96: 61-68,1991).

In data set [5] the test system is Hongro apple. Nature of the data set: Breakdown of the self-incompatibility in Hongro apple (self-pollination rate, field). Format: in vivo. The settings on record: 25 days after the treatment. Here is the method: In the field application experiment, Hongro apple (the Rosaceae) which has a very low self-pollination rate (<5%) was isolated single-genetically by covering up whole plants with a fine-meshed net to exclude any pollinating insects. The agent of the present invention was treated enough to get-wet flowers at various concentrations with a micro-spray at 9:00-11:00 AM. The target of the agent was the first-blooming primary apple flower. The self-pollination rate was investigated 25 days after the treatment and compared with no treatment and artificial cross-pollination.

The mark [6] stands for this setting: agent 0.1 mM, treated 1 day after full blooming.
The mark [7] stands for this setting: agent 0.1 mM, treated 1 day before full blooming.
Setting [8] is: agent 0.1 mM, treated 2 days after full blooming.
Setting [9] is: agent 0.1 mM, treated 2 days before full blooming.
The mark [10] stands for this setting: agent 0.1 mM, treated 3 days before full blooming.
The mark [11] stands for this setting: agent 0.1 mM, treated 4 days before full blooming.
[12] abbreviates: agent 0.1 mM, treated 5 days before full blooming.
The mark [13] stands for this setting: agent 0.1 mM, treated 6 days before full blooming.
[14] abbreviates: agent 0.1 mM, treated 7 days before full blooming.
The mark [15] stands for this setting: agent 0.1 mM, treated at full blooming (0 day).
Where [16] appears, read: agent 1.0 mM, treated 1 day after full blooming.
[17] abbreviates: agent 1.0 mM, treated 1 day before full blooming.
Setting [18] is: agent 1.0 mM, treated 2 days after full blooming.
[19] abbreviates: agent 1.0 mM, treated 2 days before full blooming.
The mark [20] stands for this setting: agent 1.0 mM, treated 3 days before full blooming.
Setting [21] is: agent 1.0 mM, treated 4 days before full blooming.
[22] abbreviates: agent 1.0 mM, treated 5 days before full blooming.
[23] abbreviates: agent 1.0 mM, treated 6 days before full blooming.
[24] abbreviates: agent 1.0 mM, treated 7 days before full blooming.
[25] abbreviates: agent 1.0 mM, treated at full blooming (0 day).

Take `COCCOCCOCC(=O)[O-].COCCOCCOCC(=O)[O-].[Cu+2]` [Cu(II) 2-(2-methoxyethoxy)ethoxyacetete, Cu(II) 2-(2-methoxyethoxy) ethoxyacetete]: the results for the side-effect index in data set [1] (1.0 mM), in data set [1] (5.0 mM) and in data set [1] (20.0 mM) were 0, 0 and 1, respectively. Moreover, the fruition rate was 0% in data set [2] (setting [6]); above 60% in data set [2] (setting [7]); 0% in data set [2] (setting [8]); above 50% in data set [2] (setting [9]); above 10% in data set [2] (setting [10]); below 10% in data set [2] (setting [11]). The fruition rate in data set [2] (setting [12]) is given as 0%; in data set [2] (setting [13]), 0%; in data set [2] (setting [14]) it was 0%; in data set [2] (setting [15]) it was above 50%. Further, the fertilization rate in data set [3] stood at 53%. Also, the “OD (2.0 mM)” value in data set [4] is listed as 0.63.
For the molecule `COCCOCC(=O)[O-].COCCOCC(=O)[O-].[Cu+2]` [Cu(II) 2-methoxyethoxyacetate], the results for the side-effect index in data set [1] (1.0 mM), in data set [1] (5.0 mM) and in data set [1] (20.0 mM) were 0, 0 and 2, respectively. Moreover, the fruition rate is listed as 0% in data set [2] (setting [6]); above 50% in data set [2] (setting [7]); 0% in data set [2] (setting [8]); above 40% in data set [2] (setting [9]); above 10% in data set [2] (setting [10]); below 10% in data set [2] (setting [11]). The fruition rate in data set [2] (setting [12]) was 0%; in data set [2] (setting [13]) it was 0%; in data set [2] (setting [14]), 0%; in data set [2] (setting [15]), above 40%. This molecule showed a fertilization rate in data set [3] of 58%. In addition, in data set [4], the “OD (2.0 mM)” value is given as 0.65.
`O=C([O-])[C@H](O)[C@@H](O)[C@H](O)[C@H](O)CO.O=C([O-])[C@H](O)[C@@H](O)[C@H](O)[C@H](O)CO.[Cu+2]` [Cu(II) Gluconate] registered a fertilization rate in data set [3] of 51%. For the same molecule, the “OD (2.0 mM)” value in data set [4] was determined as 0.70.
`O=S(=O)([O-])[O-].[Cu+2]` [CuSO4, reference compound]: the side-effect index in data set [1] (1.0 mM) is given as 3; in data set [1] (5.0 mM), 5; in data set [1] (20.0 mM), 5. The fruition rate in data set [2] (setting [16]) was 0%; in data set [2] (setting [17]), 0%; in data set [2] (setting [18]) it was 0%; in data set [2] (setting [19]) it was 0%; in data set [2] (setting [20]) it was below 5%; in data set [2] (setting [21]), below 5%. The fruition rate in data set [2] (setting [22]) is on record as above 10%; in data set [2] (setting [23]), above 10%; in data set [2] (setting [24]), above 10%; in data set [2] (setting [25]) it was 0%. Moreover, the “OD (2.0 mM)” value in data set [4] stood at 0.70. In addition, the self-pollination rate is reported as 0% in data set [5] (concentration 0.01 mM); 0% in data set [5] (concentration 0.03 mM); 0% in data set [5] (concentration 0.10 mM); 0% in data set [5] (concentration 0.30 mM); below 10% in data set [5] (concentration 1.0 mM).
With `COCCOCCOCC(=O)[O-].COCCOCCOCC(=O)[O-].[Zn+2]` [Zn(II) 2-(2-methoxyethoxy)ethoxyacetete, Zn(II) 2-(2-methoxyethoxy) ethoxyacetete], the figures for the side-effect index in data set [1] (1.0 mM), in data set [1] (5.0 mM) and in data set [1] (20.0 mM) were 0, 0 and 1, respectively. Besides, the fruition rate in data set [2] (setting [6]) is listed as 0%; in data set [2] (setting [7]), above 60%; in data set [2] (setting [8]), 0%; in data set [2] (setting [9]), above 50%; in data set [2] (setting [10]), above 10%; in data set [2] (setting [11]) it was below 10%. For the same molecule, the fruition rate in data set [2] (setting [12]) was 0%; in data set [2] (setting [13]), 0%; in data set [2] (setting [14]), 0%; in data set [2] (setting [15]), above 50%. In data set [3], this molecule returned a fertilization rate of 51%. Moreover, in data set [4], the “OD (2.0 mM)” value is on record as 0.62.
`COCCOCC(=O)[O-].COCCOCC(=O)[O-].[Zn+2]` [Zn(II) 2-methoxyethoxyacetate]: the figures for the side-effect index in data set [1] (1.0 mM), in data set [1] (5.0 mM) and in data set [1] (20.0 mM) were 0, 0 and 1, respectively. Also, the fruition rate in data set [2] (setting [6]) was 0%; in data set [2] (setting [7]), above 60%; in data set [2] (setting [8]) it was 0%; in data set [2] (setting [9]), above 50%; in data set [2] (setting [10]), above 10%; in data set [2] (setting [11]), below 10%. The fruition rate is 0% in data set [2] (setting [12]), 0% in data set [2] (setting [13]), 0% in data set [2] (setting [14]) and above 40% in data set [2] (setting [15]). The fertilization rate in data set [3] was 53%. Further, in data set [4], the “OD (2.0 mM)” value amounted to 0.64. Moreover, the self-pollination rate is recorded as above 10% in data set [5] (concentration 0.01 mM); above 40% in data set [5] (concentration 0.03 mM); above 60% in data set [5] (concentration 0.10 mM); above 60% in data set [5] (concentration 0.30 mM); above 60% in data set [5] (concentration 1.0 mM).
`O=C([O-])[C@H](O)[C@@H](O)[C@H](O)[C@H](O)CO.O=C([O-])[C@H](O)[C@@H](O)[C@H](O)[C@H](O)CO.[Zn+2]` [Zn(II) Gluconate] registered a fertilization rate in data set [3] of 48%. In data set [4], the “OD (2.0 mM)” value is on record as 0.73.
Take `O=S(=O)([O-])[O-].[Zn+2]` [ZnSO4, reference compound]: the figures for the side-effect index in data set [1] (1.0 mM), in data set [1] (5.0 mM) and in data set [1] (20.0 mM) were 2, 5 and 5, respectively. The fruition rate is on record as 0% in data set [2] (setting [16]); 0% in data set [2] (setting [17]); 0% in data set [2] (setting [18]); 0% in data set [2] (setting [19]); below 5% in data set [2] (setting [20]); above 5% in data set [2] (setting [21]). Also, the fruition rate is given as above 5% in data set [2] (setting [22]), above 10% in data set [2] (setting [23]), above 10% in data set [2] (setting [24]) and 0% in data set [2] (setting [25]). The “OD (2.0 mM)” value in data set [4] is 0.72. Also, the self-pollination rate is given as 0% in data set [5] (concentration 0.01 mM); 0% in data set [5] (concentration 0.03 mM); 0% in data set [5] (concentration 0.10 mM); 0% in data set [5] (concentration 0.30 mM); below 10% in data set [5] (concentration 1.0 mM).
